According to the supplement of paper PMC5412046:
Where a name gives a salt, the structure may show the parent alone.

Experiments:
[1] = test system: SB.mhdgc-1; assay: viability at highest tested concentration (MAXR) relative to DMSO; higher = less cytotoxic; conditions: SB.mhdgc-1 (hereditary c.1380delA CDH1 gastric cancer)
Summary of the method: (§1)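 Gastric cancer cells derived from hereditary or sporadic patients were treated for 48 h with compound at 11 threefold dilutions, with the top concentration recorded per compound. Viability was then read by CellTiter-Glo luminescence. Data are viability normalised to DMSO, at the highest concentration or as trapezoidal area under the curve.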

[2] = test system: SB.msgc-1; assay: as above; conditions: SB.msgc-1 (sporadic gastric cancer)
Summary of the method: as §1

[3] = test system: SB.mhdgc-1; assay: area under the dose-response curve of % viability (trapezoidal, 11 doses) (% viability x log10 concentration); higher = less cytotoxic; conditions: SB.mhdgc-1 (hereditary c.1380delA CDH1 gastric cancer)
Summary of the method: as §1

[4] = test system: SB.msgc-1; assay: as above; conditions: SB.msgc-1 (sporadic gastric cancer)
Summary of the method: as §1

COc1cc([C@@H]2c3cc4c(cc3[C@@H](O[C@@H]3O[C@@H]5CO[C@@H](C)O[C@H]5[C@H](O)[C@H]3O)[C@H]3COC(=O)[C@H]23)OCO4)cc(OC)c1O [Etoposide] (top concentration 46.0829 µM)
viability [1]: 30.1% | viability [2]: 41.2% | area under the dose-response curve [3]: 264 | area under the dose-response curve [4]: 400

COc1cc(CCc2cc(NC(=O)c3ccc(N4C[C@@H](C)N[C@@H](C)C4)cc3)n[nH]2)cc(OC)c1 [AZD-4547] (top concentration 46.0829 µM)
viability [1]: 6.27% | viability [2]: 53.1% | area under the dose-response curve [3]: 482 | area under the dose-response curve [4]: 420

C[C@@H]1CC[C@@]2(OC1)OC1CC3C4CC=C5CC(O)CCC5(C)C4CCC3(C)C1[C@@H]2C (some centres not stated) [Diosgenin] (top concentration 46.0829 µM)
viability [1]: 101% | viability [2]: 91.8% | area under the dose-response curve [3]: 569 | area under the dose-response curve [4]: 453

CNCC(O)C(O)C(O)C(O)CO.O=C(O)c1ccc(-c2cc3cccnc3c(-c3ccc4nonc4c3)n2)cc1 [NVP-ABE171] (top concentration 46.0829 µM)
viability [1]: 7.16% | viability [2]: 20.2% | area under the dose-response curve [3]: 567 | area under the dose-response curve [4]: 511

CC(C(=O)O)c1ccc2c(c1)CC(=O)c1ccccc1S2 (configuration not stated) [Zaltoprofen] (top concentration 46.0829 µM)
viability [1]: 31.5% | viability [2]: 49.6% | area under the dose-response curve [3]: 452 | area under the dose-response curve [4]: 431

S=C(NCc1ccc2c(c1)OCO2)N1CCN(c2ncnc3c2oc2ccccc23)CC1 [Amuvatinib] (top concentration 92.1659 µM)
viability [1]: 28% | viability [2]: 47.9% | area under the dose-response curve [3]: 472 | area under the dose-response curve [4]: 436

CCCCCCCCOc1ccccc1C(=O)Nc1ccc(C(=O)OCC[N+](C)(CC)CC)cc1 [Octylonium bromide] (top concentration 46.0829 µM)
viability [1]: 46.1% | viability [2]: 48.2% | area under the dose-response curve [3]: 422 | area under the dose-response curve [4]: 484

CC(O)C1C2C(C)\C(=C(/N2C1=O)C(O)=O)SC3CNC(C3)C(=O)N(C)C (configuration not stated) [Meropenem] (top concentration 46.0829 µM)
viability [1]: 75.3% | viability [2]: 93.1% | area under the dose-response curve [3]: 411 | area under the dose-response curve [4]: 431

CN1CCN(c2cc(C(=O)Nc3ccc4c(c3)-c3c(c(C(N)=O)nn3-c3ccc(F)cc3)CC4)c(Cl)cn2)CC1 [PHA-408] (top concentration 46.0829 µM)
viability [1]: 2.85% | viability [2]: 18% | area under the dose-response curve [3]: 441 | area under the dose-response curve [4]: 443

NC(=O)c1cccc2cn(-c3ccc([C@@H]4CCCNC4)cc3)nc12 [Niraparib] (top concentration 46.0829 µM)
viability [1]: 27.8% | viability [2]: 76% | area under the dose-response curve [3]: 452 | area under the dose-response curve [4]: 513

COc1ccc(C2Sc3ccccc3N(CCN(C)C)C(=O)C2OC(C)=O)cc1 (configuration not stated) [Diltiazem hydrochloride] (top concentration 46.0829 µM)
viability [1]: 96% | viability [2]: 115% | area under the dose-response curve [3]: 588 | area under the dose-response curve [4]: 583

CC1(CN2CCC(n3c(=O)[nH]c4ccccc43)CC2)OCc2ccccc2-n2cccc21 (configuration not stated) [Zaldaride maleate] (top concentration 46.0829 µM)
viability [1]: 5.92% | viability [2]: 20.3% | area under the dose-response curve [3]: 510 | area under the dose-response curve [4]: 325

Cc1ccc2c(=O)c3cccc(CC(=O)O)c3oc2c1C [Vadimezan] (top concentration 46.0829 µM)
viability [1]: 36.3% | viability [2]: 81.5% | area under the dose-response curve [3]: 461 | area under the dose-response curve [4]: 498

CC(=O)OC\C1=C(\[N@]2[C@@H](SC1)[C@H](N)C2=O)C(O)=O [7-Aminocephalosporanic acid] (top concentration 46.0829 µM)
viability [1]: 86.8% | viability [2]: 112% | area under the dose-response curve [3]: 512 | area under the dose-response curve [4]: 532

CC(C)NCC(O)COc1ccc(COCCOC(C)C)cc1 (configuration not stated) [Bisoprolol] (top concentration 46.0829 µM)
viability [1]: 107% | viability [2]: 119% | area under the dose-response curve [3]: 508 | area under the dose-response curve [4]: 555

C[C@H]1O[C@H](O[C@H]2[C@H](O)[C@@H](O)[C@H](O[C@@H]2CO)O[C@H]3[C@H](O)[C@@H](O)C(O)O[C@@H]3CO)[C@H](O)[C@@H](O)[C@@H]1N[C@H]4\C=C(CO)/[C@@H](O)[C@H](O)[C@H]4O (some centres not stated) [Acarbose] (top concentration 46.0829 µM)
viability [1]: 104% | viability [2]: 118% | area under the dose-response curve [3]: 588 | area under the dose-response curve [4]: 601

CON(C)C(=O)N1\N=C(/S[C@]1(CCCN)C2=CC=CC=C2)C3=CC(=CC=C3F)F [ARRY-520] (top concentration 46.0829 µM)
viability [1]: 3.77% | viability [2]: 50% | area under the dose-response curve [3]: 287 | area under the dose-response curve [4]: 223

Clc1ccc(COC(Cn2ccnc2)c2ccc(Cl)cc2Cl)cc1 (configuration not stated) [Econazole nitrate] (top concentration 46.0829 µM)
viability [1]: 77.1% | viability [2]: 64.3% | area under the dose-response curve [3]: 552 | area under the dose-response curve [4]: 514

O=C(Nc1ccc(OC(F)(F)F)cc1)c1sccc1NCc1ccnc2ccccc12 [OSI-930] (top concentration 46.0829 µM)
viability [1]: 78.9% | viability [2]: 48.4% | area under the dose-response curve [3]: 507 | area under the dose-response curve [4]: 506

Cc1cc(/C=c2/sc3nc4ccccc4n3c2=O)c(C)n1-c1ccccc1 [ITX3] (top concentration 46.0829 µM)
viability [1]: 55.4% | viability [2]: 56.6% | area under the dose-response curve [3]: 590 | area under the dose-response curve [4]: 504

Cc1ccc(NC(=O)c2ccc(CN3CCN(C)CC3)cc2)cc1Nc1nc(-c2cccnc2)cs1 [Masitinib] (top concentration 46.0829 µM)
viability [1]: 23.7% | viability [2]: 42.1% | area under the dose-response curve [3]: 518 | area under the dose-response curve [4]: 443

CC(C)(C)c1cc(C(=O)O)c(NC(=O)Nc2ccc3[nH]ncc3c2)s1 [S6K-18] (top concentration 46.0829 µM)
viability [1]: 99.1% | viability [2]: 77.1% | area under the dose-response curve [3]: 426 | area under the dose-response curve [4]: 524

CC(C[N+](C)(C)C)OC(N)=O (configuration not stated) [Bethanechol chloride] (top concentration 46.0829 µM)
viability [1]: 119% | viability [2]: 102% | area under the dose-response curve [3]: 573 | area under the dose-response curve [4]: 563

CN(Cc1cc(Br)cc(Br)c1N)C1CCCCC1 [Bromhexine hydrochloride] (top concentration 46.0829 µM)
viability [1]: 106% | viability [2]: 105% | area under the dose-response curve [3]: 578 | area under the dose-response curve [4]: 575

OC[C@H]1O[C@H](C[C@@H]1O)N2/C=C(C(=O)NC2=O)/C(F)(F)F [Trifluridine] (top concentration 46.0829 µM)
viability [1]: 40% | viability [2]: 53.2% | area under the dose-response curve [3]: 433 | area under the dose-response curve [4]: 513

COC1=C2C[C@@H](C)C[C@H](OC)[C@H](O)[C@@H](C)/C=C(\C)[C@H](OC(N)=O)[C@@H](OC)/C=C/C=C(\C)C(=O)NC(=CC1=O)C2=O [Geldanamycin] (top concentration 46.0829 µM)
viability [1]: 1.89% | viability [2]: 0.593% | area under the dose-response curve [3]: 374 | area under the dose-response curve [4]: 306

COc1ccc(F)c(F)c1C(=O)c1cnc(NC2CCN([S+](C)(=O)[O-])CC2)nc1N [R-547] (top concentration 46.0829 µM)
viability [1]: 50.3% | viability [2]: 50.5% | area under the dose-response curve [3]: 471 | area under the dose-response curve [4]: 422

CC(C)c1cc(C(C)C)c(CC(=O)N[S+](=O)([O-])Oc2c(C(C)C)cccc2C(C)C)c(C(C)C)c1 [Avasimibe] (top concentration 46.0829 µM)
viability [1]: 7.78% | viability [2]: 18.4% | area under the dose-response curve [3]: 565 | area under the dose-response curve [4]: 475

CC1(C)CC(=O)c2c(C(F)(F)F)nn(-c3ccc(C(N)=O)c(NC4CCC(O)CC4)c3)c2C1 (configuration not stated) [SNX-2112] (top concentration 46.0829 µM)
viability [1]: 44.6% | viability [2]: 48.4% | area under the dose-response curve [3]: 362 | area under the dose-response curve [4]: 311

NC1CCC(Nc2nc(Nc3ccc(C(=O)N4CCCCC4)cc3)c3ncn(-c4cccc(F)c4)c3n2)CC1 (configuration not stated) [Purfalcamine] (top concentration 46.0829 µM)
viability [1]: 122% | viability [2]: 92.6% | area under the dose-response curve [3]: 624 | area under the dose-response curve [4]: 547

CCC(C)N1\N=C/N(C1=O)C2=CC=C(C=C2)N3CCN(CC3)C4=CC=C(OC[C@H]5CO[C@@](C[N]6C=NC=N6)(O5)C7=CC=C(Cl)C=C7Cl)C=C4 (some centres not stated) [Itraconazole] (top concentration 46.0829 µM)
viability [1]: 62.2% | viability [2]: 57.9% | area under the dose-response curve [3]: 472 | area under the dose-response curve [4]: 464

N#C/N=C(\NCCCCCCOc1ccc(Cl)cc1)Nc1ccncc1 [GMX-1778] (top concentration 46.0829 µM)
viability [1]: 30.5% | viability [2]: 38.8% | area under the dose-response curve [3]: 260 | area under the dose-response curve [4]: 390

O=C(O)c1cc(/N=N/c2ccc([S+](=O)([O-])Nc3ccccn3)cc2)ccc1O [Sulfasalazine] (top concentration 46.0829 µM)
viability [1]: 82.3% | viability [2]: 105% | area under the dose-response curve [3]: 498 | area under the dose-response curve [4]: 510
